Source: PubChem BioAssay (NCI)
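A five-concentration, 48-hour dose response in 96-well plates underlies each endpoint, interpolated linearly between surrounding concentrations. The concentration for 50% growth inhibition is given as GI50. TGI: total growth inhibition.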

Assays:
Test in all cases: DTP human tumour cell line panel, 48 h
SK-OV-3 ovarian = system: SK-OV-3 ovarian
NCI-H522 lung = system: NCI-H522 lung
786-0 renal = system: 786-0 renal
BT-549 breast = system: BT-549 breast
SNB-75 CNS = system: SNB-75 CNS
OVCAR-8 ovarian = system: OVCAR-8 ovarian
DU-145 prostate = system: DU-145 prostate
NCI-H226 lung = system: NCI-H226 lung
SF-295 CNS = system: SF-295 CNS
T-47D breast = system: T-47D breast

Row | Structure (SMILES) | GI50 (SK-OV-3 ovarian) | TGI (SK-OV-3 ovarian) | GI50 (NCI-H522 lung) | TGI (NCI-H522 lung) | GI50 (786-0 renal) | TGI (786-0 renal) | GI50 (BT-549 breast) | TGI (BT-549 breast) | GI50 (SNB-75 CNS) | TGI (SNB-75 CNS) | GI50 (OVCAR-8 ovarian) | TGI (OVCAR-8 ovarian) | GI50 (DU-145 prostate) | TGI (DU-145 prostate) | GI50 (NCI-H226 lung) | TGI (NCI-H226 lung) | GI50 (SF-295 CNS) | TGI (SF-295 CNS) | GI50 (T-47D breast) | TGI (T-47D breast)
1 | O=Cc1ccc(-c2ccc(-c3nc4ccccc4s3)cc2)s1 | > 100 µM | > 100 µM | 69.1 µM | > 100 µM | 51.7 µM | > 100 µM | 63.8 µM | > 100 µM | > 100 µM | > 100 µM | 80.9 µM | > 100 µM | 73 µM | > 100 µM | 66.1 µM | > 100 µM | 40.7 µM | > 100 µM | > 100 µM | > 100 µM
2 | CC1OC(CC(=O)O)CC2=C1C(=O)c1c(O)cccc1C2=O (stereo not given) |  | 12.7 µM |  | < 0.0251 µM |  | 0.336 µM |  | 0.361 µM |  | 2.86 µM |  | 1.1 µM |  | 2.5 µM |  | 3.13 µM |  | 2.51 µM |  | 4.4 µM
3 | CN(C)c1cccc(F)c1C(=O)NC(=O)Nc1ccc(Cl)cc1 |  | > 29.3 µM |  | 5.77 µM |  | > 100 µM |  | > 100 µM |  | 9.12 µM |  | > 86.4 µM |  | > 100 µM |  | > 100 µM |  | > 21.4 µM |  | > 100 µM
4 | COCCOCCOCc1n(Cc2ccc3ccccc3n2)c2ccccc2[n+]1Cc1ccc2ccccc2n1 | 1.79 µM | 6.6 µM | 0.415 µM | 11.1 µM | 3.74 µM | 15.5 µM | 0.369 µM | 4.42 µM | 0.317 µM | 4.3 µM | 1.27 µM | 12.6 µM | 2.67 µM | 41.8 µM | 2.44 µM | 18.4 µM | 1.69 µM | 8.19 µM | 0.302 µM | 13.1 µM
5 | CC(C)(C)N/N=C(\C(=O)NC1=C(Cl)C(=O)c2ccccc2C1=O)C1C=CCS1(=O)=O (stereo not given) |  | > 100 µM |  | 25.5 µM |  | 54 µM |  | 25.1 µM |  | 24 µM |  | 72 µM |  | 23.2 µM |  | 27.9 µM |  | 25.1 µM |  | 37.8 µM
